In assay [1] the test system is HCV genotype 1b replicon cell line (APC144; Huh7 cell background). In words: HCV Genotype 1b Replicon Assay (Renilla luciferase readout). The assay is classed as cell-based. The note with it: Hepatitis C virus, Huh-7; read-out: Genotype 1b (pEC50 class, HCV genotype 1b replicon assay) (converted). The source says: Assay 1: HCV Genotype 1b Replicon Assay
The HCV genotype 1b replicon cell line was obtained from Apath LLC (Brooklyn, N.Y.) (APC144; Huh7 cell background). This subgenomic replicon contains the N-terminus of the HCV core protein fused to the neomycin-resistance selectable marker. The EMCV IRES lies downstream and drives expression of humanized Renilla luciferase fused to the non-structural proteins NS3-NS5B. This cell line was used to determine compound potency using the luciferase activity readout as a measurement of compound inhibition of replicon levels.
(§1) Cells were grown at 37° C. in a 5% CO2 humidified incubator in DMEM (Invitrogen) with 10% FBS (HyClone), 1×NEAA (Invitrogen), 1× Pen-Strep (Invitrogen), and 500 μg/mL G418 (Invitrogen). On day 1 of the assay, cells were plated at 10,000 cells/well in white 96-well tissue culture plates (Costar) in 200 μL media lacking G418. Four hours later, once the cells have adhered, the media was removed and replaced with media (no G418) containing dose-responses of test compounds. Compounds were initially diluted in DMSO and then diluted another 200× in media to bring the final DMSO concentration down to 0.5%. The cells were incubated with test compounds for 48 hours. At the end of the incubation period, media and compound were removed from the plates and the luciferase activity was determined using Promega Renilla-Glo reagents.
To analyze the data, the luciferase activity was plotted vs. the compound concentration, and EC50 values were determined from a 4-parameter robust fit model with the GraphPad Prism software package (GraphPad Software, Inc., San Diego, Calif.). Results are expressed as the negative decadic logarithm of the EC50 value, pEC50.
Test compounds having a higher pEC50 value in this assay show greater inhibition of HCV genotype 1b replication.
On the technique in general: In antiviral work, replicon cells carry a viral genome segment that copies itself.

The subject of assay [2] is HCV genotype 1a replicon cell line (APC89; Huh7.5 cell background). In words: HCV Genotype 1a Replicon Assay (NS3-specific protease activity readout). The assay is classed as cell-based. To be noted: Hepatitis C virus. As for the experimental part: Assay 2: HCV Genotype 1a Replicon Assay
The HCV genotype 1a replicon cell line was obtained from Apath LLC (APC89; Huh7.5 cell background). This subgenomic replicon contains the N-terminus of the HCV core protein fused to the neomycin-resistance selectable marker. The EMCV IRES lies downstream and drives expression of the non-structural proteins NS3-NS5B. Compound potencies were determined using the NS3-specific protease activity in lysates as a measurement of compound inhibition of replicon levels.
as §1, with “850” for “500”, “15,000” for “10,000”, “black” for “white”, “had” for “have”, “48 or 72” for “48”, “plates.” for “plates and the luciferase activity was determined using Promega Renilla-Glo reagents.”
To determine the NS3-specific protease activity in lysates, the cells were lysed at room temperature in 50 μL/well of 50 mM Hepes pH 7.5, 150 mM NaCl, 15% Glycerol, 0.15% Triton X-100, 10 mM DTT for 20 minutes with shaking. 50 μL of an NS3/4a protease-specific FRET substrate (Anaspec RET S1 Cat#22991) was then added to the wells at a final concentration of 15 μM. The plates were incubated at 37° C. for 20 minutes, which corresponds to a timepoint at which the protease activity is still in the linear phase. Protease activity was determined by measuring fluorescence (Excitation: 340 nm; Emission: 509 nm).
To analyze the data, the fluorescence was plotted vs. the compound concentration, and EC50 values were determined from a 4-parameter robust fit model using GraphPad Prism software.

Where [3] appears, read: compounds incubated for 48 hours, read-out: Genotype 1a (pEC50 class, HCV genotype 1a replicon assay), * results (converted).
Where [4] appears, read: 72 hour incubation, read-out: Genotype 1a (pEC50 class, HCV genotype 1a replicon assay) (converted).

Like-named read-outs stand apart in the source and are kept apart here. Where only a bound is given, the exact number is not on record here.

For the molecule `COC(=O)N[C@H](C(=O)N1CCC[C@H]1c1nc(-c2ccc(-c3ccc(NC(=O)c4ccc(N5CCN(C(=O)C(C)(C)C)CC5)cc4)cc3)cc2)c[nH]1)C(C)C` [Example 2, ((S)-1-{(S)-2-[4-(4′-{4-[4-(2,2-Dimethyl-propionyl)-piperazin-1-yl]-benzoylamino}-biphenyl-4-yl)-1H-imidazol-2-yl]-pyrrolidine-1-carbonyl}-2-methyl-propyl)-carbamic acid methyl ester], the EC50 is < 100 pM in assay [1] and 1000 to 10000 pM in assay [2] (setting [3]).
Consider `COC(=O)N[C@H](C(=O)N1CCC[C@H]1c1nc(-c2ccc(-c3ccc(NC(=O)c4ccc(N5CCN(C(=O)OC(C)(C)C)CC5)cc4)cc3)cc2)c[nH]1)C(C)C` [Example 3, 4-[4-(4′-{2-[(S)-1-((S)-2-Methoxycarbonylamino-3-methyl-butyryl)-pyrrolidin-2-yl]-1H-imidazol-4-yl}-biphenyl-4-ylcarbamoyl)-phenyl]-piperazine-1-carboxylic acid tert-butyl ester], for which the EC50 in assay [1] was < 100 pM; in assay [2] (setting [3]), 1000 to 10000 pM.
`COC(=O)N[C@H](C(=O)N1CCC[C@H]1c1nc(-c2ccc(-c3ccc(NC(=O)c4ccc(N5CCN(S(C)(=O)=O)CC5)cc4)cc3)cc2)c[nH]1)C(C)C` [Example 4, {(S)-1-[(S)-2-(4-{4′-[4-(4-Methanesulfonyl-piperazin-1-yl)-benzoylamino]-biphenyl-4-yl}-1H-imidazol-2-yl)-pyrrolidine-1-carbonyl]-2-methyl-propyl}-carbamic acid methyl ester]: the EC50 in assay [1] is < 100 pM; in assay [2] (setting [3]), 10000 to 100000 pM.
Consider `COC(=O)N[C@H](C(=O)N1CCC[C@H]1c1nc(-c2ccc(-c3ccc(NC(=O)c4ccc(N5CCN(C(=O)C6CC6)CC5)nc4)cc3)cc2)c[nH]1)C(C)C` [Example 5, ((S)-1-{(S)-2-[4-(4′-{[6-(4-Cyclopropanecarbonyl-piperazin-1-yl)-pyridine-3-carbonyl]-amino}-biphenyl-4-yl)-1H-imidazol-2-yl]-pyrrolidine-1-carbonyl}-2-methyl-propyl)-carbamic acid methyl ester], for which the EC50 was < 100 pM in assay [1] and 1000 to 10000 pM in assay [2] (setting [4]).
For the molecule `COC(=O)N[C@H](C(=O)N1CCC[C@H]1c1nc(-c2ccc(-c3ccc(C(=O)Nc4ccc(N5CCN(C(=O)OC(C)(C)C)CC5)cc4)cc3)cc2)c[nH]1)C(C)C` [Example 6, 4-{4-[(4′-{2-[(S)-1-((S)-2-Methoxycarbonylamino-3-methyl-butyryl)-pyrrolidin-2-yl]-1H-imidazol-4-yl}-biphenyl-4-carbonyl)-amino]-phenyl}-piperazine-1-carboxylic acid tert-butyl ester], the figures for the EC50 in assay [1] and in assay [2] (setting [3]) were < 100 pM and 10000 to 100000 pM, respectively.
Turning to `COC(=O)N[C@H](C(=O)N1CCC[C@H]1c1nc(-c2ccc(-c3ccc(C(=O)Nc4ccc(N5CCN(C(=O)C6CC6)CC5)cc4)cc3)cc2)c[nH]1)C(C)C` [Example 7, {(S)-1-[(S)-2-(4-{4′-[4-(4-cyclopropanecarbonyl-piperazin-1-yl)-phenylcarbamoyl]-biphenyl-4-yl}-1H-imidazol-2-yl)-pyrrolidine-1-carbonyl]-2-methyl-propyl}-carbamic acid methyl ester], the results for the EC50 in assay [1] and in assay [2] (setting [3]) were < 100 pM and 1000 to 10000 pM, respectively.
Take `COC(=O)N[C@H](C(=O)N1CCC[C@H]1c1nc(-c2ccc(-c3ccc(NC(=O)c4ccc(N5CCN(C(=O)C6CC6)CC5)cc4)cc3F)cc2)c[nH]1)C(C)C` [Example 8, {(S)-1-[(S)-2-(4-{4′-[4-(4-cycloproanecarbonyl-piperazin-1-yl)-benzoylamino]-2′-fluoro-biphenyl-4-yl}-1H-imidazol-2-yl)-pyrrolidine-1-carbonyl]-2-methyl-propyl}-carbamic acid methyl ester]: the values for the EC50 in assay [1] and in assay [2] (setting [4]) were < 100 pM and 1000 to 10000 pM, respectively.
As to `CCN(CC)[C@@H](C(=O)N1CCC[C@H]1c1nc(-c2ccc(-c3ccc(NC(=O)c4ccc(N5CCN(C(=O)C6CC6)CC5)cc4)cc3)cc2)c[nH]1)c1ccccc1` [Example 9, 4-(4-Cyclopropanecarbonyl-piperazin-1-yl)-N-(4′-{2-[(S)-1-((R)-2-diethylamino-2-phenyl-acetyl)-pyrrolidin-2-yl]-1H-imidazol-4-yl}-biphenyl-4-yl)-benzamide], the results for the EC50 in assay [1] and in assay [2] (setting [3]) were < 100 pM and 100 to 1000 pM, respectively.
On the same counts, the results for `CNC(=O)N1CCN(c2ccc(C(=O)Nc3ccc(-c4ccc(-c5c[nH]c([C@@H]6CCCN6C(=O)[C@@H](NC(=O)OC)C(C)C)n5)cc4)cc3)cn2)CC1` [Example 10, ((S)-2-Methyl-1-{(S)-2-[4-(4′-{[6-(4-methylcarbamoyl-piperazin-1-yl)-pyridine-3-carbonyl]-amino}-biphenyl-4-yl)-1H-imidazol-2-yl]-pyrrolidine-1-carbonyl}-propyl)-carbamic acid methyl ester] are < 100 pM and 100 to 1000 pM.
Consider `CNC(=O)N1CCN(c2ccc(C(=O)Nc3ccc(-c4ccc(-c5nc([C@@H]6CCCN6C(=O)[C@@H](NC(=O)OC)C(C)C)[nH]c5Cl)cc4)cc3)cc2)CC1` [Example 11, {(S)-1-[(S)-2-(5-Chloro-4-{4′-[4-(4-methylcarbamoyl-piperazin-1-yl)-benzoylamino]-biphenyl-4-yl}-1H-imidazol-2-yl)-pyrrolidine-1-carbonyl]-2-methyl-propyl}-carbamic acid methyl ester], for which the EC50 in assay [1] is < 100 pM; in assay [2] (setting [3]), 100 to 1000 pM.
With `COC(=O)N[C@H](C(=O)N1CCC[C@H]1c1nc(-c2ccc(-c3ccc(NC(=O)c4ccc(N5CCN(C(=O)C6CC6)C[C@H]5C)nc4)cc3)cc2)c[nH]1)C(C)C` [Example 12, ((S)-1-{(S)-2-[4-(4′-{[6-((R)-4-Cyclopropanecarbonyl-2-methyl-piperazin-1-yl)-pyridine-3-carbonyl]-amino}-biphenyl-4-yl)-1H-imidazol-2-yl]-pyrrolidine-1-carbonyl}-2-methyl-propyl)-carbamic acid methyl ester], the EC50 in assay [1] was < 100 pM; in assay [2] (setting [4]), 100 to 1000 pM.
Regarding `COC(=O)N[C@H](C(=O)N1CCC[C@H]1c1nc(-c2ccc(-c3ccc(NC(=O)c4ccc(N5CCN(C(=O)[C@H]6CC6(C)C)C[C@@H]5C)nc4)cc3)cc2)c[nH]1)C(C)C` [Example 13, [(S)-1-((S)-2-{4-[4′-({6-[(S)-4-((S)-2,2-Dimethyl-cyclopropane-carbonyl)-2-methyl-piperazin-1-yl]-pyridine-3-carbonyl}-amino)-biphenyl-4-yl]-1H-imidazol-2-yl}-pyrrolidine-1-carbonyl)-2-methyl-propyl]-carbamic acid methyl ester], the EC50 in assay [1] and in assay [2] (setting [4]) was < 100 pM throughout.
Turning to `COC(=O)N[C@H](C(=O)N1CCC[C@H]1c1nc(-c2ccc(-c3ccc(NC(=O)c4ccc(N5CCN(C(=O)[C@H]6CC6(C)C)C[C@H]5C)nc4)cc3)cc2)c[nH]1)C(C)C` [Example 14, [(S)-1-((S)-2-{4-[4′-({6-[(R)-4-((S)-2,2-Dimethyl-cyclopropane-carbonyl)-2-methyl-piperazin-1-yl]-pyridine-3-carbonyl}-amino)-biphenyl-4-yl]-1H-imidazol-2-yl}-pyrrolidine-1-carbonyl)-2-methyl-propyl]-carbamic acid methyl ester], the EC50 in assay [1] and in assay [2] (setting [4]) was < 100 pM in each case.
